For one data set, the system named is [^3H]-FC in plasma. The data set is described as follows: Clearance of [^3H]-FC from the blood of a rabbit. It counts as in vivo. The method, then:
(§1) 1-palmitoyl-2-oleoyl-phosphatidylcholine (PC) and 1-palmitoyl-2-oleoyl phosphatidylinositol (PI) vesicles are prepared by drying to completion 40 μmol of each lipid into a 12×75 mm culture tube under N2. The lipids are solubilized in 3 mL of sterile saline comprising 150 mM sodium chloride (pH 7.2) by sonication for 1 minute at constant duty cycle. The vesicles are incubated at 37° C. for 10 minutes and then sonicated at a high output for 4 minutes in 10° C. water bath under N2. In order to determine the rate of clearance of cholesterol from the test animals (rabbits), a radioactive tracer is added to the vesicle preparations prior to injection into the rabbit. 200 μL of 1 μCi/μmL [^3H]-FC is dried into a 12×75 mm culture tube with 40 μmol of PI or POPC. 3 ml of PBS is added to the dried lipids and the mixture is sonicated as described above. This tracer/vesicle preparation is injected and then 5 min later, the PI or PC vesicles were injected and blood is sampled as described below.
(§2) Male New Zealand white rabbits (3.5-4.0 kg) are fasted for 12 hours prior to injection and remain fasted until after data for the final time point is taken. Rabbits have free access to water during this time. A catheter is inserted into the marginal ear vein and blood samples are collected into tubes containing 7.5% (K3) EDTA solution at the desired time points. A pre-injection blood sample is taken and the vesicle solution of either PI (n=4), or PC (n=2) or saline (n=1) is injected into the marginal ear vein. A sample of blood is removed at 10, 30 min, 1, 3, 6 and 24 h after the injection. All blood samples are placed on ice and then centrifuged at 3000 rpm for 15 min at 4° C. to separate the plasma. In order to ensure that lecithin:cholesterol acyl transferase (LCAT) is inhibited in the stored plasma, iodoacetamide (150 mM) is added to plasma samples as taught by Guerin et al. (1994).
Referring now to FIG. 5, there is shown the clearance of [^3H]-FC at various times after rabbits are injected with [^3H]-FC and either PI or PC vesicles. […] In comparison, rabbits injected with PC contain approximately 90% of the injected radioactivity after 1 h.

Data set [1] concerns the target T1, lecithin:cholesterol acyltransferase (LCAT) (Oryctolagus cuniculus, UniProt P53761).
T1 construct: endogenous LCAT activity is reduced to about 18% that of normal; from tissue; host or cells: plasma of PI- or PC-injected rabbits
T1 sequence (P53761 25-440): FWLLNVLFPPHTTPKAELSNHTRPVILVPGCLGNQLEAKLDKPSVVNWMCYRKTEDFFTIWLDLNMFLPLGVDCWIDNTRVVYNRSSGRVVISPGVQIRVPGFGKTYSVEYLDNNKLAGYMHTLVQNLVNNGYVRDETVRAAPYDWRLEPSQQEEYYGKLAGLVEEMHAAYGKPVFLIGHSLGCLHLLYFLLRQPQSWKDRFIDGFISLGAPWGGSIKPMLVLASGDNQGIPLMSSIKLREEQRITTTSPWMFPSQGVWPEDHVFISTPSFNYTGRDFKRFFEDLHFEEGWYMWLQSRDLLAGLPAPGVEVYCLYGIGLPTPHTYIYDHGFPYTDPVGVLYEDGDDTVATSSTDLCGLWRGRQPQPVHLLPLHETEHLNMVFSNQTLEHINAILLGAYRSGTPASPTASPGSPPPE
The data set is described as follows: Plasma cholesterol esterification by LCAT after injection of PC or PI. It counts as in vivo, rabbit. Particulars: after injection of vesicles. The procedure: Male New Zealand white rabbits (3.5-4.0 kg) are fasted for 12 hours prior to injection and remain fasted until after data for the final time point is taken. Rabbits have free access to water during this time. A catheter is inserted into the marginal ear vein and blood samples are collected into tubes containing 7.5% (K3) EDTA solution at the desired time points. A pre-injection blood sample is taken and the vesicle solution of either PI (n=4), or PC (n=2) or saline (n=1) is injected into the marginal ear vein. A sample of blood is removed at 10, 30 min, 1, 3, 6 and 24 h after the injection. All blood samples are placed on ice and then centrifuged at 3000 rpm for 15 min at 4° C. to separate the plasma. In order to ensure that lecithin:cholesterol acyl transferase (LCAT) is inhibited in the stored plasma, iodoacetamide (150 mM) is added to plasma samples as taught by Guerin et al. (1994). The effect of PI on LCAT activity is examined using plasma samples that are not treated with iodoacetamide. 400 μL aliquots of plasma for each time point are incubated for 30 min with 10 μCi of [^3H]-FC on filter paper discs (Dobiasova et al., 1991) at 37° C. and the reaction is terminated with the addition of 2 mL ethanol. Reaction products are extracted in hexane and the amount of [^3H] associated with CE and FC is determined by thin layer chromatography. […] However, endogenous LCAT activity is reduced to about 18% that of normal (PC injected control) after about 10 min post injection of PI. Also, PI injection reduces the fractional rate of cholesterol esterification from about 45% to about 8%, of initial values, per hour. […] To investigate the effect of PI on the production and transport of CE in the plasma, the amount of radioactive CE was measured at each time point (data not shown). […] Rather it appears that PI may modify intravascular cholesterol levels by mobilizing a cellular cholesterol pool.

The subject of another data set is HDL, LDL and VLDL. The data set is described as follows: Lipoprotein surface charge after injection of PI or PC vesicles into rabbits (agarose gel electrophoresis). It counts as in vivo, rabbit. Particulars: intravenous injection of vesicles, fasted rabbit. The method, then:
as §1, §2
Lipoprotein fractions are isolated by sequential ultracentrifugation (VLDL+IDL, d<1.019 g/mL; LDL, d=1.019-1.063 g/mL; and HDL, d=1.063-1.21 g/mL) as known to one of skill in the art, and lipoprotein lipid composition (total cholesterol, free cholesterol (FC), and triglyceride (TG) concentrations) are determined enzymatically using kits from Roche Diagnostic (Laval, PQ). An aliquot of each lipoprotein isolated is dialysed into PBS and its surface charge characteristics were determined by electrophoresis on pre-cast 0.5% agarose gels using the procedure of Sparks and Phillips (1992).
Referring now to FIG. 1, there is illustrated the effect of injection of PI and PC vesicles on the estimated surface potential of HDL, LDL, and VLDL proteins in vivo. […] PC, which is a neutral phospholipid, may also bind to the lipoproteins. However since PC is a neutral phospholipid, no significant change in the migration of the lipoproteins is observed. The increased migratory property of lipoproteins in a gel peaks following injection of PI and returns to normal by about 24 hours. […] Similarly, the VLDL fraction is estimated to have an initial surface potential of about −8.8 mV, which increases to about −11.2 mV after 10 minutes. LDL is estimated to have an initial surface potential of about −3.9 mV, and peaks about 60 min after the PI injection at about −8.0 mV.

Data set [2] relates to faecal cholesterol output. The data set is described as follows: Faecal cholesterol excretion after PI or PC injection. It is filed as in vivo, rabbit. Particulars: injection into a rabbit. The procedure: Rabbits are injected with 40 μmol PI or PC vesicles containing 400 μCi […]. Animals are sacrificed at 30 min, and bile is aspirated from the gall bladder. In addition the livers are harvested, homogenized and tissue radioactivity determined. Sterol excretion in the faeces is measured similarly except that faecal cholesterol levels are measured over a time period of 96 hours. Referring now to FIG. 7, there is graphically depicted the effect of PI injection associated with sterol excretion. […] PC injection into a rabbit had no effect on cholesterol excretion, while PI injection enhanced faecal cholesterol output by about 300% at 2 days post injection. The increase in cholesterol output returned to normal by about day 4.

In another data set the test system is Human plasma. Kind of data set: Plasma clotting time (prothrombin time). It is filed as biochemical. The settings on record: human plasma incubated with increasing amounts of vesicles, 24 h at 4° C. The method, then:
Referring now to FIG. 11, there is shown the effect of charged lipid on blood coagulation. Human plasma was incubated with various amounts of uncharged vesicles, phosphatidylcholine (PC) or anionic vesicles, phosphatidylinositol (PI), for 24 h at 4° C. Prothrombin time was then measured with the use of a commercially available kit.

Data set [3] deals with lipoprotein CE and FC in whole blood (red blood cells). The data set is described as follows: Incubation of whole blood with PC or PI vesicles: lipoprotein CE and FC. It counts as cell-based, human. The procedure:
Referring now to FIG. 4, there is graphically depicted the effect of PI or PC vesicles on lipoprotein CE and FC. Incubation of whole blood with PC vesicles results in a 60% increase in the CE content of the lipoproteins, while FC content is reduced by about 10%. […] Negatively charged phospholipids appeared to promote a reciprocal exchange of CE for FC between red blood cells and the lipoprotein particles. […] It has previously been taught that red blood cells cannot store CE and therefore utilize a membrane-bound CE hydrolase to maintain membrane FC levels. Without wishing to be bound by theory, the results therefore indicate that PI stimulates the degradation of lipoprotein CE.

In data set [4] the test system is VLDL, LDL and HDL in human plasma. The data set is described as follows: Lipoprotein charge in human plasma incubated with PI or DOTAP vesicles. It counts as biochemical. The settings on record: 24 h at 4° C.; for Lipoprotein Surface Charge LDL: no lipid 2.5; for Lipoprotein Surface Charge VLDL: no lipid 5.5; for Lipoprotein Surface Charge HDL: no lipid 11.8. The method, then: Different concentrations as shown below of negatively charged phospholipid (PI) or positively charged phospholipid (DOTAP) were added to human plasma and the surface charge on the lipoproteins was determined. The human plasma was incubated with PI or dioleoyl trimethylammonium-propane (DOTAP) vesicles for 24 h at 4° C. and then electrophoresed on 0.5% agarose. Lipoprotein charge was calculated from electrokinetic analyses.

The next data set deals with T2, lipoprotein lipase (Homo sapiens, UniProt P06858).
T2 sequence (P06858 28-475): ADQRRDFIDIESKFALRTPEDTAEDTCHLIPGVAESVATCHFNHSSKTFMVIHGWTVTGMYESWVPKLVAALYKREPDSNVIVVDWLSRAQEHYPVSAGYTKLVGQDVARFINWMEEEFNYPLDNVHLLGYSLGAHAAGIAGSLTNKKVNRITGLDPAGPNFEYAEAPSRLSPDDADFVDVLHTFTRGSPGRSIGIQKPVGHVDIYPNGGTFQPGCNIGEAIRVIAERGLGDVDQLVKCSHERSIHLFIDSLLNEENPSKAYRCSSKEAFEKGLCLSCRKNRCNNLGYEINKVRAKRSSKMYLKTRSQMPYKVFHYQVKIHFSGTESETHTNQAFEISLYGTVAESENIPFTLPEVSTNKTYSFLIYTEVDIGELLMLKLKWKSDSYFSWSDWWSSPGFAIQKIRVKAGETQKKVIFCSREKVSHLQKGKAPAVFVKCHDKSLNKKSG
The data set is described as follows: Lipid hydrolysis by lipoprotein lipase in plasma enriched with charged lipid. It counts as biochemical. The settings on record: not shown. An excerpt:
Referring now to FIG. 10, there is shown the effect of lipoprotein charge on hepatic lipase. High density lipoprotein particles were enriched to contain various amounts of anionic or cationic lipids and then characterized as substrates for pure human hepatic lipase. Decreasing the net negative charge on the lipoprotein was associated with a reduction in the lipolytic activity of is hepatic lipase. Lipoprotein charge can also be used to regulate lipoprotein lipase. […] Lipid hydrolysis by hepatic or lipoprotein lipase can therefore be affected by alterations in the charge properties of plasma lipoproteins.

The test system of a further data set is HDL. The data set is described as follows: Oral administration of PS: HDL charge in a human subject. It counts as in vivo. The procedure: Referring now to FIG. 9, there is graphically depicted the results of oral administration of 300 mg of PS to a human subject. Plasma samples were drawn before, and over a 24 hour period after, administration of PS. HDL charge was determined electrokinetically after electrophoresis of the plasma samples on 0.5% agarose. […] Thus, orally administered negatively charged lipids is absorbed intestinally and alters lipoprotein charge in the blood stream.

Entries after “also recorded” stand apart in the source; their conditions may differ.

As for “1-palmitoyl-2-oleoyl-phosphatidylcholine [PC, reference compound]”, the “[^3H]-FC in plasma, of the initial dose” value in [^3H]-FC in plasma (after about 1 h) is “approximately 90%”. In addition, in data set [^3H]-FC in plasma (rabbit, in vivo), the “time to clear [^3H]-FC to a comparable baseline level” value is listed as above 6 h. In data set [1], the “effect on LCAT activity / cholesteryl esterification” value was “No appreciable change”. In the data set on HDL, LDL and VLDL, the “effect on lipoprotein net negative surface charge / migration of HDL, LDL and VLDL into agarose gel” value is on record as “negligible effect; also recorded: did not significantly affect migration”. Besides, the “effect on cholesterol excretion” value in data set [2] was “no effect”. In addition, in the data set on Human plasma, the “effect on plasma clotting time (prothrombin time)” value was “no significant effect”. Also, in [3], the “increase in CE content of the lipoproteins” value amounted to 60% and the “reduction of lipoprotein FC content” value is given as “about 10%”.
Take `CCCCCCCC/C=C\CCCCCCCC(=O)OCC(C[N+](C)(C)C)OC(=O)CCCCCCC/C=C\CCCCCCCC` (centres unmarked) [DOTAP, dioleoyl trimethylammonium propane]: the “Lipoprotein Surface Charge LDL” value in data set [4] (5 mg/ml) is on record as 2.2 -mV; in data set [4] (10 mg/ml), 1.9 -mV; in data set [4] (50 mg/ml), 1.9 -mV; in [4] (100 mg/ml), 1.7 -mV. In addition, the “Lipoprotein Surface Charge VLDL” value is 4.6 -mV in [4] (5 mg/ml), 4.6 -mV in [4] (10 mg/ml), 4.1 -mV in data set [4] (50 mg/ml) and 4.1 -mV in data set [4] (100 mg/ml). In addition, the “Lipoprotein Surface Charge HDL” value is 11.4 -mV in [4] (5 mg/ml), 11.2 -mV in data set [4] (10 mg/ml), 11.0 -mV in [4] (50 mg/ml) and 10.9 -mV in [4] (100 mg/ml). The “effect on lipid hydrolysis by lipoprotein lipase” value on lipoprotein lipase is listed as “inhibited lipid hydrolysis”.
As to phosphatidylserine [PS], the HDL charge result with HDL (by 6 hours after 300 mg oral, from −10.9 mV before, 'over' = more negative) is “over −12 mV”; in the data set on HDL (by 24 hours after 300 mg oral), −11.4 mV.

Source of the values: US7390783B2, “Charged phospholipid compositions and methods for their use” (Ottawa Heart Institute Research Corporation, priority 2000, dated 2008).
